The values that follow come from BindingDB's records for doi:10.1021/acs.biochem.6b01152 (University of California San Diego, 2017).

Molecules are shown by their SMILES.

A word on the Kd: it is the free concentration of one partner at which half of the binding sites on the other are occupied at equilibrium, for simple one-to-one binding.

Common to all, as to assay: 8-[Fluo]-cAMP Fluorescence Polarization Binding Assay
On the technique in general: Polarisation of emitted light reports the rotation of a fluorescent probe.

Assay [1] concerns the target cAMP-dependent protein kinase type I-alpha regulatory subunit (Homo sapiens, UniProt P10644). As for the experimental part: (§1) The ability of the R subunit basic patch mutants to bind cAMP in the absence of the C subunit was tested using the fluorescent cAMP analogue, 8-[fluo]-cAMP (Biolog), used at a final concentration of 10 nM. Wells were titrated with a rangeof R subunit concentrations (from 0 to 125 nM), which were diluted with FP assay buffer.

Assay [2] deals with cAMP-dependent protein kinase type I-alpha regulatory subunit [K242A] (Homo sapiens, UniProt P10644, K242A). As to the method: as §1
Assay [3] has as its target cAMP-dependent protein kinase type I-alpha regulatory subunit [K244A] (Homo sapiens, UniProt P10644, K244A). As to the method:
as §1

In assay [4] the target is cAMP-dependent protein kinase type I-alpha regulatory subunit [R241A] (Homo sapiens, UniProt P10644, R241A). As for the experimental part: as §1
In assay [5] the target is cAMP-dependent protein kinase type I-alpha regulatory subunit [R243A] (Homo sapiens, UniProt P10644, R243A). As to the method:
as §1

cAMP-dependent protein kinase type I-alpha regulatory subunit, sequence (P10644 whole entry): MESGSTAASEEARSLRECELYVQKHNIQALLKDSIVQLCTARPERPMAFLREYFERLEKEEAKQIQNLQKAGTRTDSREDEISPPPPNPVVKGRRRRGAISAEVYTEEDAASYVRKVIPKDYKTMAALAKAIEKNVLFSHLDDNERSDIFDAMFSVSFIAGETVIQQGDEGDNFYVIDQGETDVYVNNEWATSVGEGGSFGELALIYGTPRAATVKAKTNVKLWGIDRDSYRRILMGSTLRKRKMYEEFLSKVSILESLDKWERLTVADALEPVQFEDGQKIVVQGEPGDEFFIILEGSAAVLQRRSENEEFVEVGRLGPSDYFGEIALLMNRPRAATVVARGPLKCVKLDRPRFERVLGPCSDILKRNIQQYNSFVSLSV
cAMP-dependent protein kinase type I-alpha regulatory subunit [K242A], sequence (P10644 whole entry K242A): as the sequence (P10644 whole entry) above, with K242A counted along it
cAMP-dependent protein kinase type I-alpha regulatory subunit [R241A], sequence (P10644 whole entry R241A): as the sequence (P10644 whole entry) above, with R241A counted along it
cAMP-dependent protein kinase type I-alpha regulatory subunit [K244A], sequence (P10644 whole entry K244A): as the sequence (P10644 whole entry) above, with K244A counted along it
cAMP-dependent protein kinase type I-alpha regulatory subunit [R243A], sequence (P10644 whole entry R243A): as the sequence (P10644 whole entry) above, with R243A counted along it

Turning to `Nc1ncnc2c1nc(SCCNC(=S)Nc1ccc(-c3c4ccc(=O)cc-4oc4cc(O)ccc34)c(C(=O)O)c1)n2C1OC2COP(=O)(O)OC2C1O` (stereo not given) [8-[Fluo]-cAMP], the Kd in assay [1] is 7.3 nM; in assay [2], 7.32 nM; in assay [3] it was 7.71 nM; in assay [4], 6.72 nM; in assay [5] it was 7.29 nM.
